Entries after “also recorded” stand apart in the source; their conditions may differ.
Legend:
Format in all cases: cell-based, mouse
[1] = test system: NIH/3T3 fibroblasts; assay: Fiber bundle subcellular imaging assay (residence time, 4.5 μm fibers); settings: 10 seconds per frame, top 30 fibers, 5-minute experiment, control 7.5±7.4 frames
Method: After labeling, the cells were allowed to settle and adhere to a fibronectin-coated fiber bundle that had been secured to a delta T4 dish (FIG. 1A). Fibers were placed into the delta T4 dish to maintain the temperature at 37° C. during experiments. […] After cells were allowed to adhere to the bundle's distal end, it was mounted on an inverted microscope stage, and excitation light was introduced through the proximal end of the fiber bundle. The fiber bundle is not connected directly to any part of the microscope, but remains within a centimeter of the objective. […] The resulting fluorescence emission light was then carried back through the fiber bundle to a CCD camera. […]
(§1) Cell migration was detected using two types of fiber bundles differing in the sizes of the individual fibers. […]
The data shown in FIG. 3C originate from an experiment in which three separate fibers were exposed to successively higher concentrations of nocodazole. […] Regions of the cell periphery can be difficult to distinguish from the background, because the fluorescence intensity gradually diminishes at the cell perimeter. […]
Timelapse recording was performed to determine the extent of cell migration or membrane motion across the fiber surface. […] Cell movement was recorded on delta T4 dishes (data not shown), as well as on Schott and Illumina fiber bundles. […] All movement was recorded using a fluorescein filter set. […]

[2] = test system: NIH/3T3 fibroblasts; assay: Cell viability, ethidium homodimer-1 dead assay after the experiment; settings: ethidium homodimer dead assay after each experiment
Source text: The dead assay was taken from a Live/Dead Viability/Cytotoxicity kit from Molecular Probes. DiO and EthD show virtually no overlap in excitation/emission wavelengths, being 484/501 nm and 528/617 nm, respectively.

[3] = test system: NIH/3T3 fibroblasts; assay: Fiber bundle whole-cell migration assay (residence time, 25 μm fibers); settings: ten minutes per frame, average of 30 fibers, ten hours, control 4.3±2.9 frames
Method: After labeling, the cells were allowed to settle and adhere to a fibronectin-coated fiber bundle that had been secured to a delta T4 dish (FIG. 1A). Fibers were placed into the delta T4 dish to maintain the temperature at 37° C. during experiments. […] After cells were allowed to adhere to the bundle's distal end, it was mounted on an inverted microscope stage, and excitation light was introduced through the proximal end of the fiber bundle. The fiber bundle is not connected directly to any part of the microscope, but remains within a centimeter of the objective. The excitation light was transferred through the fiber bundle to the distal end, where it excited the Vibrant DiO dye in the cell membrane (FIG. 1B). The resulting fluorescence emission light was then carried back through the fiber bundle to a CCD camera. […]
as §1
Migration is quantified as an increase in intensity at a particular fiber, as a fluorescently dyed cell moves across that fiber. […]
In this example, a threshold was assigned for each selected fiber at 75% of the maximum peak intensity for that particular fiber. […] The number of frames that the intensity stays above this threshold is counted for each fiber, and then averaged for all 30 fibers, giving an average residence time for the experiment (FIG. 2D). […]

COC(=O)Nc1nc2ccc(C(=O)c3cccs3)cc2[nH]1 [nocodazole, Nocodazole]
average residence time ([1]; 200 nM nocodazole): 13.2±8.0 frames | average residence time ([1]; 300 nM nocodazole): 19.0±9.4 frames | cell viability after nocodazole treatment [2]: all cells were alive; also recorded: Cells were determined to be alive | average residence time ([3]; 200 nM nocodazole): 18.8±10.3 frames | average residence time ([3]; 300 nM nocodazole): 24.6±18.6 frames
